In patent US4973603A, “Platelet activating factor antagonist and methods of use therefor” (priority 1989, dated 1990):
Entries after “also recorded” stand apart in the source; their conditions may differ.

Columns and labels:
gastric mucosa = system: gastric mucosa
Procedure: Robert and Szabo, In: Selye's Guide to Stress Research, (Vol. 2, A. Selye, Ed.) New York; Van Nostrand Reinhold Co., pp. 22-46 (1983); and Robert et al., Gastroenterology, 77:433-443 (1979). Experimental groups of 5-11 rats (Charles River CD) were fasted for 24 hours before the administration of either aspirin, Formula I or indomethacin by a rubber stomach tube (Rusch No. 8). The animals were killed 1 hour later by carbon dioxide asphyxiation. At that time, 4 ml of 10% aqueous buffered formaldehyde (formalin) was injected directly into the stomach of each animal. […] After 5 minutes of in situ fixation, the stomach and proximal duodenum were removed, opened along the greater curvature, pinned on a cork with mucosa upward, and immersed in 10% formaldehyde until further processing. Szabo, S. et al., J. Pharmacol. Meth., 13:59-66 (1985). The gastric lesions were then evaluated by direct visual inspection.
For comparative purposes, a semiquantitative scale of 0-3 was used to assess the extent of gastric mucosal lesions. Szabo et al., Science, 214:200-202 (1981); and Szabo et al., Gastroenterology, 85:1384-1390 (1983). According to this scale, a score of 0 indicates a normal mucosa; 1 represents the appearance of between 1 and 4 small petechiae; 2 indicates the presence of 5 or more petechiae or hemmorhagic streaks up to 4 mm in length; 3 represents the appearance of erosions longer than 5 mm or confluent hemmorrhages.

[1] = system: platelet activating factor (PAF); assay: PAF Induced Mortality; format: in vivo, mouse (Charles River CD-1, female)
Procedure: The induction of mortality by the injection of low doses of PAF into mice has been described as a method for assessing the effectiveness of agents to antagonize the anaphylactic properties of PAF by J. M. Young, P. J. Maloney, S. W. Jubb and J. S. Clarke, in Prostaglandins, 30:545-551 (1985). Charles River CD-1 female mice (25-30 g) were given intraperitoneal injections of PAF (10 μg) dissolved in 100 μl of 5% ethanol-saline. […] Test drugs were orally administered in 50 μl of peanut oil one hour prior to PAF injection. Control mice were dosed with vehicle only. Mortality was assessed by counting survivors at one hour, two hours, and twenty four hours after the PAF injection.

arachidonic acid = assay: The Mouse Ear Edema Test (arachidonic acid-induced skin edema); format: in vivo, mouse (Charles River CD-1, female); details: for % Inhibition of Edema: 1 hour before arachidonic acid (0.5 mg)
Description: The direct application of arachidonic acid to skin, such as the mouse ear, produces an edematous response which is believed to be mediated by eicosanoids resulting from the actions of both cyclooxygenase and lipoxygenase systems. J. M. Young, D. A. Spires, C. J. Bedford, B. Wagner, S. J. Ballaron and L. M. DeYoung, J. Invest. Dermatol. 82:367-371 (1984); E. E. Opas, R. J. Bonney, and J. L. Hanes J. Invest. Dermatol. 84:253-256 (1985). PAF has been reported to cause the release of arachidonic acid, and as a result, gives rise to increased levels of eicosanoids in the exposed tissues. F. H. Chilton, J. T. Flaherty, C. E. Walsh, M. J. Thomas, R. L. Wykle, L. R. DeChatelet and B. M. Waite, J. Biol. Chem., 257:5402-5407 (1982). Thus, the mouse ear edema test can be used to discover substances which antagonize the effects of PAF.
The test drugs were dissolved in 10 μl ethanol and applied to the inner surface of the left ears of Charles River CD-1 female mice. Control values were obtained by applying 10 μl of ethanol to the right ear so that each mouse served as its own control. One hour later, arachidonic acid (0.5 mg/ear in 10 μl ethanol) was applied to both ears and allowed to act on the skin for one hour. The mice were then killed by cervical dislocation and the ears removed so that all tissue samples were of equivalent areas. The extent of edema in each sample was measured by weighing on an analytical balance.

[2] = system: 5-HETE synthesis in mouse peritoneal macrophages; assay: Inhibition of 5-HETE Synthesis in mouse peritoneal macrophages; format: cell-based, mouse (CD-1, female); details: for 5-HETE (%) (percentage of total recovered radioactivity): vehicle 2.9 ± 0.16
Procedure: It has been proposed that products of lipoxygenase action such as leukotriene […] (LTB4) and 5-hydroxyeicosatetraenoic acid (5-HETE) can act synergistically with PAF to cause neutrophil degranulation which may contribute to the development of inflammation. J. T. O'Flaherty, J. Cell Biology, 122:229-239 (1985). Formula I was tested as an inhibitor of 5-HETE production in mouse peritoneal macrophages using the following procedure.
Peritoneal cells were collected from female CD-1 mice (20-25 g) following sacrifice by cervical dislocation. The cells from each group of mice were pooled, centrifuged and suspended in MEM. Aliquotes containing 4.5×10^6 cells in 3.0 ml MEM were placed in culture dishes and incubated for 18 hours at 37° C. By this procedure, a relatively homogenous monolayer of macrophages was obtained. Eicosanoid synthesis was brought about by the addition of ^14 C-arachidonic acid (2×10^5 dpm; 0.22 μM) followed by a calcium ionophore, A23187 (0.03 μM). After 15 minutes, the reaction was stopped by the addition of citric acid to pH4 and the products were extracted with ethyl acetate. Silica gel thin layer chromatography (hexane; ether; acetic acid; 50:50:1) was used to separate the 5-HETE which was identified by comparison with authentic material. Carbon-14 content was measured by liquid scintillation counting of the HETE containing zone. The significance of drug induced changes was calculated using the Student's test when compared with vehicle treated (ethanol, 30 μl) cells.

[3] = 20 mg/kg oral, 1 hr after PAF (10 μg i.p.)
[4] = 20 mg/kg oral, 2 hrs after PAF (10 μg i.p.)
[5] = 20 mg/kg oral, 24 hrs after PAF (10 μg i.p.)
[6] = 40 mg/kg oral, 1 hr after PAF (10 μg i.p.)
[7] = 40 mg/kg oral, 2 hrs after PAF (10 μg i.p.)
[8] = 40 mg/kg oral, 24 hrs after PAF (10 μg i.p.)
[9] = 80 mg/kg oral, 1 hr after PAF (10 μg i.p.)
[10] = 80 mg/kg oral, 2 hrs after PAF (10 μg i.p.)
[11] = 80 mg/kg oral, 24 hrs after PAF (10 μg i.p.)

CCCCCc1cc(O)c2c(c1)OC(C)(C)C1CC=C(C(=O)O)CC21 (stereo not shown) [Formula I, 6a,7,10,10a-tetrahydro-6,6-dimethyl-9-carboxyl-3-pentyl-6H-dibenzo[b,d]pyran-1-ol]
Incidence (rats with lesions/total tested) (gastric mucosa; 80 mg/kg by stomach tube, 1 hour): 0/10 | Mean Score (gastric mucosa; 80 mg/kg by stomach tube, 1 hour, scale 0-3 (0 = normal mucosa)): 0.0 | ulcer / gastric lesion formation (in words) (gastric mucosa; directly into the stomach, Formula I at twice its therapeutic dose in the mouse (40 mg/kg), 40 mg/kg): did not induce ulcer formation; also recorded: does not induce the formation of gastric lesions | Survivors (%) [1, 3]: 25% | Survivors/N [1, 3]: 5/20 | Survivors (%) [1, 4]: 25% | Survivors/N [1, 4]: 5/20 | Survivors (%) [1, 5]: 25% | Survivors/N [1, 5]: 5/20 | Survivors (%) [1, 6]: 80% | Survivors/N [1, 6]: 12/15 | Survivors (%) [1, 7]: 80% | Survivors/N [1, 7]: 12/15 | Survivors (%) [1, 8]: 80% | Survivors/N [1, 8]: 12/15 | survival rate ([1]; 40 mg/kg oral, all time points (1, 2, 24 hours)): 80% | Survivors (%) [1, 9]: 70% | Survivors/N [1, 9]: 7/10 | Survivors (%) [1, 10]: 70% | Survivors/N [1, 10]: 7/10 | Survivors (%) [1, 11]: 70% | Survivors/N [1, 11]: 7/10 | antagonism of anaphylactic effects of PAF (in words) ([1]; oral, mouse): potent antagonist to the anaphylactic effects of PAF | % Inhibition of Edema (arachidonic acid; 0.13 mg/ear topical): 0.6% | % Inhibition of Edema (arachidonic acid; 0.25 mg/ear topical): 18.3% | % Inhibition of Edema (arachidonic acid; 0.50 mg/ear topical): 19.1% | % Inhibition of Edema (arachidonic acid; 1.0 mg/ear topical): 19.3% | reduction of arachidonic acid-induced skin edema (in words) (arachidonic acid; topical, mouse ear): effective in reducing arachidonic acid-induced skin edema | relative activity versus naproxen (arachidonic acid; topical, mouse ear): more active than the widely used antiinflammatory drug naproxen | relative potency versus indomethacin and phenidone (arachidonic acid; topical, mouse ear): approximately one half the potency of agents such as indomethacin and phenidone | 5-HETE (%) (percentage of total recovered radioactivity) ([2]; 0.32 μM): 3.08 ± 0.36% | 5-HETE (%) (percentage of total recovered radioactivity) ([2]; 1.6 μM): 3.03 ± 0.42% | 5-HETE (%) (percentage of total recovered radioactivity) ([2]; 3.2 μM): 1.58 ± 0.41% | 5-HETE (%) (percentage of total recovered radioactivity) ([2]; 4 μM): 1.68 ± 0.15% | 5-HETE (%) (percentage of total recovered radioactivity) ([2]; 8 μM): 1.48 ± 0.87% | 5-HETE (%) (percentage of total recovered radioactivity) ([2]; 16 μM): 3.10 ± 0.10% | inhibition at 3.2 µM ([2]; Mus musculus, Peritoneal macrophage, 3.2 μM): 46% | inhibition at 4 µM ([2]; Mus musculus, Peritoneal macrophage, 4 μM): 42% | inhibition at 8 µM ([2]; Mus musculus, Peritoneal macrophage, 8 μM): 49% | reduction of 5-HETE synthesis (in words) ([2]; dose range of 3.2 to 8 μM): reduces 5-HETE synthesis to one half of the control level
